Molecules are shown by their SMILES.

Chain of Vasopressin V1a receptor (P37288 whole entry): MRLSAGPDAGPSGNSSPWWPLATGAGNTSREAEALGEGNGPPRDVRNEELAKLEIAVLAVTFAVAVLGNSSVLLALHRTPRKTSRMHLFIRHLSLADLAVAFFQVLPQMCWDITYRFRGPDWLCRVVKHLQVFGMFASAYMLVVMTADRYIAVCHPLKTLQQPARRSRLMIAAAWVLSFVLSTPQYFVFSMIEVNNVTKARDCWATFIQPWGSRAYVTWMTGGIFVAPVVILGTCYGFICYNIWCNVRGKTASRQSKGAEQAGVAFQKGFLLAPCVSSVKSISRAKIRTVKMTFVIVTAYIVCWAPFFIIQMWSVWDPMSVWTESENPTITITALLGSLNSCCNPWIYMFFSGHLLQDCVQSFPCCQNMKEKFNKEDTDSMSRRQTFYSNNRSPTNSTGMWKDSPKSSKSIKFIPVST
Chain of Mitogen-activated protein kinase 1 (P28482 whole entry): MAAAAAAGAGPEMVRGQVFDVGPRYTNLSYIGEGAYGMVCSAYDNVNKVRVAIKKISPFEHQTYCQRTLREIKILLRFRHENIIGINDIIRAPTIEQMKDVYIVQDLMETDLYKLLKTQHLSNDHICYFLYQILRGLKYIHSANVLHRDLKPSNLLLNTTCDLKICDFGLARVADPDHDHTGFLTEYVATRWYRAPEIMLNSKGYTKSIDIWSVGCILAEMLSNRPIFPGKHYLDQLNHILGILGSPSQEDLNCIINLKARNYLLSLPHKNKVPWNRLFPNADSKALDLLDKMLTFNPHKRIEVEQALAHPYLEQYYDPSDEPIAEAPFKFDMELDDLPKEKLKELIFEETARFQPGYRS

The first experiment concerns the target Vasopressin V1a receptor (Homo sapiens, UniProt P37288). Further: in other assays of this panel Not Active means under 50% inhibition at 10 µM.
Experiment: not given
The class given is cell membranes, Membrane. To be noted: hek293.
For the compound `NC(=O)c1ncn([C@@H]2O[C@H](CO)[C@@H](O)[C@H]2O)n1` [RIBAVIRIN], the IC50 result is listed as “Not Active”.
Same read-out and setting: the same measure for `Nc1nnc(-c2cccc(Cl)c2Cl)c(N)n1` [LAMOTRIGINE]: “Not Active”; for `NNC(=O)c1ccncc1` [ISONIAZID]: “Not Active”.

In another experiment the target is T1, C-C chemokine receptor type 4 (Homo sapiens, UniProt P51679). Further: in other assays of this panel Not Active means under 50% inhibition at 10 µM.
T1 sequence (P51679 whole entry): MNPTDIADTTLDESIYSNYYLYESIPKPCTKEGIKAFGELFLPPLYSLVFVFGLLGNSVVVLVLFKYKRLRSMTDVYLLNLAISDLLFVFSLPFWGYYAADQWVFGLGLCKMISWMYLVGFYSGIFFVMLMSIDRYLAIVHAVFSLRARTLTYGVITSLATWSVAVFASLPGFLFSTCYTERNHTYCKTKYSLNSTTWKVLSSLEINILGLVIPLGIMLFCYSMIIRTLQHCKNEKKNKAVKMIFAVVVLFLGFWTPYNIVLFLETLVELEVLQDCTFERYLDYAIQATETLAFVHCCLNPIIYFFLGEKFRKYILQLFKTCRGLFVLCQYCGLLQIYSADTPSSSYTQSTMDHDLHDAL
Experiment: not given
It counts as cell membranes, Membrane. To be noted: chem-1.
Take `NC(=O)c1ncn([C@@H]2O[C@H](CO)[C@@H](O)[C@H]2O)n1` [RIBAVIRIN]: the IC50 entry was “Not Active”.
On the same count and under the same terms, the value for `Nc1nnc(-c2cccc(Cl)c2Cl)c(N)n1` [LAMOTRIGINE] was “Not Active”.
With `NNC(=O)c1ccncc1` [ISONIAZID], the IC50 entry was “Not Active”.

The target of the next experiment is T2, C-X-C chemokine receptor type 2 (Homo sapiens, UniProt P25025). Further: in other assays of this panel Not Active means under 50% inhibition at 10 µM.
T2 sequence (P25025 whole entry): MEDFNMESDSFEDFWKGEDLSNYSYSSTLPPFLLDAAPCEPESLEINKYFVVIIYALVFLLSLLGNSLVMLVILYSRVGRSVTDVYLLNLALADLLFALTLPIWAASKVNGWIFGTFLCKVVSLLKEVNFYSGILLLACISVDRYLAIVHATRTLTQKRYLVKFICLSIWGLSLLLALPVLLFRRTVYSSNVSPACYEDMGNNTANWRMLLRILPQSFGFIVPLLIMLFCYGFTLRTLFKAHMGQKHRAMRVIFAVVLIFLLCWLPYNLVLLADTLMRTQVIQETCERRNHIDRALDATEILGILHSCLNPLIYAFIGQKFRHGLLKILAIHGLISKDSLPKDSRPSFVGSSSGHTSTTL
Experiment: not given
The class given is cell membranes, Membrane. To be noted: cho-k1.
As to `NC(=O)c1ncn([C@@H]2O[C@H](CO)[C@@H](O)[C@H]2O)n1` [RIBAVIRIN], the IC50 result was “Not Active”.
Still for that read-out and setting: the value for `Nc1nnc(-c2cccc(Cl)c2Cl)c(N)n1` [LAMOTRIGINE] was “Not Active”; that for `NNC(=O)c1ccncc1` [ISONIAZID] was “Not Active”.

System in another experiment: not listed separately
The experiment can be described thus: DRUGMATRIX: Glutamate, NMDA, Agonism radioligand binding (ligand: [3H] CGP-39653). The class given is cell membranes, Rattus norvegicus, Wistar, Cerebral cortex, Membrane. The conditions noted are these: Not Active = under 50% inhibition at 10 µM.
Turning to `NC(=O)c1ncn([C@@H]2O[C@H](CO)[C@@H](O)[C@H]2O)n1` [RIBAVIRIN], the IC50 entry is recorded as “Not Active” and the Ki result is “Not Active”.
As to `Nc1nnc(-c2cccc(Cl)c2Cl)c(N)n1` [LAMOTRIGINE], the IC50 entry is recorded as “Not Active” and the Ki result is “Not Active”.
On to `NNC(=O)c1ccncc1` [ISONIAZID], for which the IC50 entry is given as “Not Active” and the Ki entry is “Not Active”.

System in the next experiment: not listed separately
The experiment can be described thus: DRUGMATRIX: Glutamate, NMDA, Phencyclidine radioligand binding (ligand: [3H] TCP). To be noted: Not Active = under 50% inhibition at 10 µM. It counts as cell membranes, Rattus norvegicus, Wistar, Cerebral cortex, Membrane.
For the compound `NC(=O)c1ncn([C@@H]2O[C@H](CO)[C@@H](O)[C@H]2O)n1` [RIBAVIRIN], the IC50 entry was “Not Active” and the Ki entry is given as “Not Active”.
Turning to `Nc1nnc(-c2cccc(Cl)c2Cl)c(N)n1` [LAMOTRIGINE], the IC50 entry is recorded as “Not Active” and the Ki result is “Not Active”.
Take `NNC(=O)c1ccncc1` [ISONIAZID]: the IC50 result is given as “Not Active” and the Ki result is “Not Active”.

In the next experiment the target is T3, Leukotriene C4 synthase (Cavia porcellus, UniProt A6XA80).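 Further: enzyme inhibition assay of leukotriene C4 synthase, using LTA4 as the substrate; in other assays of this panel Not Active means under 50% inhibition at 10 µM.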
T3 sequence (A6XA80 whole entry): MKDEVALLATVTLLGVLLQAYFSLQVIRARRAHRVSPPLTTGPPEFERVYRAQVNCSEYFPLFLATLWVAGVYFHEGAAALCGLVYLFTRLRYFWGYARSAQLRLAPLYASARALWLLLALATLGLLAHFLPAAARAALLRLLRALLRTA
The experiment can be described thus: biochemical. It counts as tissue-based, Lung.
Details: not given
Regarding `NC(=O)c1ncn([C@@H]2O[C@H](CO)[C@@H](O)[C@H]2O)n1` [RIBAVIRIN], the IC50 entry was “Not Active”.
On to `Nc1nnc(-c2cccc(Cl)c2Cl)c(N)n1` [LAMOTRIGINE], for which the IC50 result is given as “Not Active”.
On the same count and under the same terms, the same measure for `NNC(=O)c1ccncc1` [ISONIAZID]: “Not Active”.

Another experiment deals with T4, Cysteinyl leukotriene receptor 1 (Homo sapiens, UniProt Q9Y271).
T4 sequence (Q9Y271 whole entry): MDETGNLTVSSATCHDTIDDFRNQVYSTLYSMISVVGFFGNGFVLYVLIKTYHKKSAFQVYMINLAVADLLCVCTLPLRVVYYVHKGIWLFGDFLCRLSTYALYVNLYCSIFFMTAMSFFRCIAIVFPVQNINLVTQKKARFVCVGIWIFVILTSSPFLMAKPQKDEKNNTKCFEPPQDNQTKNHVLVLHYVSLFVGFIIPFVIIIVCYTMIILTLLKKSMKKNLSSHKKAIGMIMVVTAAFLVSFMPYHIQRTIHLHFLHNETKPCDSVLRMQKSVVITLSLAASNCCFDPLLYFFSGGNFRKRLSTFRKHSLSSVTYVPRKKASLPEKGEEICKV
Experiment: not given
The class given is cell membranes, CHO-K1, Membrane. To be noted: cho-k1.
For `NC(=O)c1ncn([C@@H]2O[C@H](CO)[C@@H](O)[C@H]2O)n1` [RIBAVIRIN], the IC50 entry is “Not Active”.
The same measure, in the same setting: the same measure for `Nc1nnc(-c2cccc(Cl)c2Cl)c(N)n1` [LAMOTRIGINE]: “Not Active”.
On the same count and under the same terms, the value for `NNC(=O)c1ccncc1` [ISONIAZID] was “Not Active”.

The target in another experiment is T5, Neuropeptide Y receptor type 1 (Homo sapiens, UniProt P25929). Further: in other assays of this panel Not Active means under 50% inhibition at 10 µM.
T5 sequence (P25929 whole entry): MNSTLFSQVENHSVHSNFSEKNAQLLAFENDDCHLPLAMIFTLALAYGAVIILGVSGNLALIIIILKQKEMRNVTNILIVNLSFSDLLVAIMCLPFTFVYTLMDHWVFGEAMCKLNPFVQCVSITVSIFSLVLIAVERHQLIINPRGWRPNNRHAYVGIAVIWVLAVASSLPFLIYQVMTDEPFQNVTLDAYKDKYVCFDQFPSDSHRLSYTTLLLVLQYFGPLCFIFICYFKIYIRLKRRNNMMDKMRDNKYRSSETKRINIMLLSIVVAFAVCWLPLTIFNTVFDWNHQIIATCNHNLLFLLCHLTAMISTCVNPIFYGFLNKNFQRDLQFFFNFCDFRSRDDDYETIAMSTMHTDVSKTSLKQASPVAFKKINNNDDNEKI
Experiment: not given
It counts as cell membranes, Membrane. The conditions noted are these: sk-n-mc.
`NC(=O)c1ncn([C@@H]2O[C@H](CO)[C@@H](O)[C@H]2O)n1` [RIBAVIRIN]: the IC50 entry is on record as “Not Active”.
Regarding `Nc1nnc(-c2cccc(Cl)c2Cl)c(N)n1` [LAMOTRIGINE], the IC50 entry is “Not Active”.
Same read-out and setting: the value for `NNC(=O)c1ccncc1` [ISONIAZID] was “Not Active”.

System in a further experiment: not listed separately
The experiment can be described thus: DRUGMATRIX: Phorbol Ester radioligand binding (ligand: [3H] PDBu). The class given is cell membranes, Mus musculus, ICR, Brain, Membrane. To be noted: Not Active = under 50% inhibition at 10 µM.
For the compound `NC(=O)c1ncn([C@@H]2O[C@H](CO)[C@@H](O)[C@H]2O)n1` [RIBAVIRIN], the IC50 entry is on record as “Not Active” and the Ki entry is “Not Active”.
`Nc1nnc(-c2cccc(Cl)c2Cl)c(N)n1` [LAMOTRIGINE]: the IC50 entry was “Not Active” and the Ki entry is recorded as “Not Active”.
Take `NNC(=O)c1ccncc1` [ISONIAZID]: the IC50 entry is “Not Active” and the Ki entry is recorded as “Not Active”.

The target in the next experiment is T6, Interstitial collagenase (Homo sapiens, UniProt P03956).
T6 sequence (P03956 whole entry): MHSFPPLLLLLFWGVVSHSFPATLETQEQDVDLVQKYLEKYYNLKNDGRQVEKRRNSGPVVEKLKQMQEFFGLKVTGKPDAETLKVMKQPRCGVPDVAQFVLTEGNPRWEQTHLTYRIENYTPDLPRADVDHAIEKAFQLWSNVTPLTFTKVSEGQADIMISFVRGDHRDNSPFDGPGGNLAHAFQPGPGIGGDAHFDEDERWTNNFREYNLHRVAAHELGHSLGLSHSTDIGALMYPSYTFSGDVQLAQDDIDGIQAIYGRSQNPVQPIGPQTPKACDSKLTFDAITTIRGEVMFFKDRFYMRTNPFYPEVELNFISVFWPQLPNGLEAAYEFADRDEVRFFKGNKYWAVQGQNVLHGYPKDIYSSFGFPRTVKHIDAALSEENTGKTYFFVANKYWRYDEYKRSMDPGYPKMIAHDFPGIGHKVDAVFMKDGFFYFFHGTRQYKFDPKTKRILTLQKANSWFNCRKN
Experiment: not given
It counts as tissue-based, Rheumatoid synovial fibroblasts.
Details: not given
On to `NC(=O)c1ncn([C@@H]2O[C@H](CO)[C@@H](O)[C@H]2O)n1` [RIBAVIRIN], for which the IC50 entry is listed as “Not Active”.
`Nc1nnc(-c2cccc(Cl)c2Cl)c(N)n1` [LAMOTRIGINE]: the IC50 entry is recorded as “Not Active”.
Still for that read-out and setting: the same measure for `NNC(=O)c1ccncc1` [ISONIAZID]: “Not Active”.

The next experiment has as its target Mitogen-activated protein kinase 1 (Homo sapiens, UniProt P28482). The experiment can be described thus: DRUGMATRIX: Protein Serine/Threonine Kinase, ERK2 enzyme inhibition (substrate: Myelin Basic Protein). The conditions noted are these: Not Active = under 50% inhibition at 10 µM. On the set-up: species or system Escherichia coli.
Take `NC(=O)c1ncn([C@@H]2O[C@H](CO)[C@@H](O)[C@H]2O)n1` [RIBAVIRIN]: the IC50 entry is “Not Active”.
Consider `Nc1nnc(-c2cccc(Cl)c2Cl)c(N)n1` [LAMOTRIGINE], for which the IC50 result is “Not Active”.
Turning to `NNC(=O)c1ccncc1` [ISONIAZID], the IC50 entry is recorded as “Not Active”.

A further experiment addresses T7, Adenosine receptor A3 (Homo sapiens, UniProt P0DMS8).
T7 sequence (P0DMS8 whole entry): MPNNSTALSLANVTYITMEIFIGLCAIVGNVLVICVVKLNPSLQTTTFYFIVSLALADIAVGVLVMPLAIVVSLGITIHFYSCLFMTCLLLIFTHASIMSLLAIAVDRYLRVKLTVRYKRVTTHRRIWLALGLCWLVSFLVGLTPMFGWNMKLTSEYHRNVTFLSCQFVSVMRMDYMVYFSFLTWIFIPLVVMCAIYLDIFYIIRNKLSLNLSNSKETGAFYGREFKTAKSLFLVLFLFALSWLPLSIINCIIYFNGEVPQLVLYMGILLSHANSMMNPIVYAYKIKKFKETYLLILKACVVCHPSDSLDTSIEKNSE
Experiment: not given
It counts as cell membranes, CHO-K1, Membrane. To be noted: cho-k1.
`NC(=O)c1ncn([C@@H]2O[C@H](CO)[C@@H](O)[C@H]2O)n1` [RIBAVIRIN]: the IC50 entry is “Not Active”.
The same measure, in the same setting: the value for `Nc1nnc(-c2cccc(Cl)c2Cl)c(N)n1` [LAMOTRIGINE] was “Not Active”.
On to `NNC(=O)c1ccncc1` [ISONIAZID], for which the IC50 result was “Not Active”.
